# Data from PubChem BioAssay (NCI).
#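 All cell lines were grown in 96-well plates and treated with compound for 48 hours. GI50 = concentration required for 50% inhibition of growth. Definition used: TGI = concentration required for complete inhibition of growth.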
# Tests used:
# Assay in all cases: NCI anticancer screen, dose series, 48 h
# [1] = system: BT-549 breast
# [2] = system: UO-31 renal
# [3] = system: HS 578T breast
# [4] = system: SW-620 colon
# [5] = system: NCI-H522 lung
# [6] = system: LOX IMVI melanoma
# [7] = system: SR leukemia
# [8] = system: DU-145 prostate
# [9] = system: HCC-2998 colon
# [10] = system: HL-60(TB) leukemia
# [11] = system: MALME-3M melanoma
# [12] = system: OVCAR-8 ovarian
# [13] = system: A498 renal
# [14] = system: UACC-62 melanoma
# [15] = system: MDA-MB-231 breast
# [16] = system: MDA-MB-435
# [17] = system: NCI-H226 lung
# [18] = system: SN12C renal
# [19] = system: SK-MEL-28 melanoma
# [20] = system: RPMI-8226 leukemia
# [21] = system: CCRF-CEM leukemia
# [22] = system: MOLT-4 leukemia
# [23] = system: SF-268 CNS
# [24] = system: IGROV1 ovarian
# [25] = system: SF-295 CNS
# [26] = system: M14 melanoma
# [27] = system: OVCAR-4 ovarian
# [28] = system: T-47D breast
# [29] = system: 786-0 renal
# [30] = system: NCI/ADR-RES ovarian
# [31] = system: U251 CNS
# [32] = system: HCT-116 colon
# [33] = system: KM12 colon
# [34] = system: MCF7 breast
# [35] = system: TK-10 renal
# [36] = system: ACHN renal
# [37] = system: NCI-H460 lung
# [38] = system: EKVX NSCLC
# [39] = system: SF-539 CNS
# [40] = system: SNB-75 CNS
# [41] = system: HCT-15 colon
# [42] = system: OVCAR-5 ovarian
# [43] = system: SK-OV-3 ovarian
# [44] = system: UACC-257 melanoma
# [45] = system: A549 NSCLC
# [46] = system: SK-MEL-2 melanoma
# [47] = system: HT29 colon
# [48] = system: HOP-92 NSCLC
# [49] = system: NCI-H23 lung
# [50] = system: COLO 205 colon
# [51] = system: OVCAR-3 ovarian
# [52] = system: HOP-62 NSCLC
# [53] = system: PC-3 prostate
# [54] = system: SNB-19 CNS
# [55] = system: RXF 393 renal
# [56] = system: SK-MEL-5 melanoma
# [57] = system: CAKI-1 renal
# [58] = system: K-562 leukemia
smiles,measurement,setting,value
COc1cc2c(cc1OC)-c1ccc3cc4c(cc3c1N(CCCn1ccnc1)C2)OCO4,GI50,[1],3.78 µM
same,TGI,[1],17.9 µM
same,GI50,[2],16.7 µM
same,TGI,[2],60.5 µM
same,GI50,[3],5.75 µM
same,TGI,[3],40 µM
same,GI50,[4],1.58 µM
same,TGI,[4],21 µM
same,GI50,[5],0.565 µM
same,TGI,[5],3.35 µM
same,GI50,[6],1.62 µM
same,TGI,[6],4.7 µM
same,GI50,[7],0.579 µM
same,TGI,[7],> 100 µM
same,GI50,[8],3.21 µM
same,TGI,[8],34.5 µM
same,GI50,[9],10.9 µM
same,TGI,[9],24.4 µM
same,GI50,[10],1.92 µM
same,TGI,[10],5.71 µM
same,GI50,[11],2.68 µM
same,TGI,[11],10.7 µM
same,GI50,[12],5.49 µM
same,TGI,[12],43.6 µM
same,GI50,[13],7.66 µM
same,TGI,[13],27.1 µM
same,GI50,[14],0.67 µM
same,TGI,[14],2.72 µM
same,GI50,[15],3.34 µM
same,TGI,[15],18.8 µM
same,GI50,[16],4.35 µM
same,TGI,[16],16.8 µM
same,GI50,[17],5.52 µM
same,TGI,[17],24.8 µM
same,GI50,[18],0.382 µM
same,TGI,[18],16.9 µM
same,GI50,[19],3.74 µM
same,TGI,[19],17.7 µM
same,GI50,[20],1.31 µM
same,TGI,[20],5.62 µM
same,GI50,[21],0.62 µM
same,TGI,[21],21.4 µM
same,GI50,[22],0.467 µM
same,TGI,[22],> 100 µM
same,GI50,[23],0.514 µM
same,TGI,[23],53.4 µM
same,GI50,[24],3.61 µM
same,TGI,[24],29.9 µM
same,GI50,[25],2.8 µM
same,TGI,[25],75.6 µM
same,GI50,[26],3.5 µM
same,TGI,[26],15.6 µM
same,GI50,[27],4.81 µM
same,TGI,[27],31.9 µM
same,GI50,[28],0.358 µM
same,TGI,[28],4.27 µM
same,GI50,[29],6.04 µM
same,TGI,[29],32.8 µM
same,GI50,[30],> 100 µM
same,TGI,[30],> 100 µM
same,GI50,[31],1.02 µM
same,TGI,[31],3.97 µM
same,GI50,[32],2.93 µM
same,TGI,[32],16.2 µM
same,GI50,[33],6.05 µM
same,TGI,[33],31.8 µM
same,GI50,[34],0.364 µM
same,TGI,[34],74.1 µM
same,GI50,[35],25.2 µM
same,TGI,[35],60.5 µM
same,GI50,[36],10.1 µM
same,TGI,[36],65.9 µM
same,GI50,[37],0.527 µM
same,TGI,[37],11.3 µM
same,GI50,[38],31.9 µM
same,TGI,[38],> 100 µM
same,GI50,[39],2.11 µM
same,TGI,[39],7.36 µM
same,GI50,[40],1.75 µM
same,TGI,[40],19.6 µM
same,GI50,[41],58.3 µM
same,TGI,[41],> 100 µM
same,GI50,[42],16.4 µM
same,TGI,[42],69.9 µM
same,GI50,[43],3.84 µM
same,TGI,[43],26.8 µM
same,GI50,[44],5.9 µM
same,TGI,[44],23.3 µM
same,GI50,[45],8.39 µM
same,TGI,[45],32.1 µM
same,GI50,[46],3.02 µM
same,TGI,[46],8.73 µM
same,GI50,[47],3.22 µM
same,TGI,[47],30.7 µM
same,GI50,[48],3.58 µM
same,TGI,[48],32.5 µM
same,GI50,[49],2.23 µM
same,TGI,[49],21.3 µM
same,GI50,[50],1.49 µM
same,TGI,[50],6.12 µM
same,GI50,[51],2.26 µM
same,TGI,[51],5.97 µM
same,GI50,[52],2.03 µM
same,TGI,[52],13.6 µM
same,GI50,[53],4.18 µM
same,TGI,[53],36.7 µM
same,GI50,[54],0.79 µM
same,TGI,[54],12.7 µM
same,GI50,[55],3.43 µM
same,TGI,[55],16.3 µM
same,GI50,[56],2.22 µM
same,TGI,[56],10.2 µM
COC(=O)c1cc2c3ccccc3n3c(=O)c4cc5ccccc5nc4c(n1)c23,GI50,[1],> 100 µM
same,TGI,[1],> 100 µM
same,GI50,[2],> 100 µM
same,TGI,[2],> 100 µM
same,GI50,[3],> 100 µM
same,TGI,[3],> 100 µM
same,GI50,[4],> 100 µM
same,TGI,[4],> 100 µM
same,GI50,[5],> 100 µM
same,TGI,[5],> 100 µM
same,GI50,[6],> 100 µM
same,TGI,[6],> 100 µM
same,GI50,[7],> 100 µM
same,TGI,[7],> 100 µM
same,GI50,[8],> 100 µM
same,TGI,[8],> 100 µM
same,GI50,[9],> 100 µM
same,TGI,[9],> 100 µM
same,GI50,[10],> 100 µM
same,TGI,[10],> 100 µM
same,GI50,[11],> 100 µM
same,TGI,[11],> 100 µM
same,GI50,[12],> 100 µM
same,TGI,[12],> 100 µM
same,GI50,[13],> 100 µM
same,TGI,[13],> 100 µM
same,GI50,[14],> 100 µM
same,TGI,[14],> 100 µM
same,GI50,[15],> 100 µM
same,TGI,[15],> 100 µM
same,GI50,[16],> 100 µM
same,TGI,[16],> 100 µM
same,GI50,[17],> 100 µM
same,TGI,[17],> 100 µM
same,GI50,[18],> 100 µM
same,TGI,[18],> 100 µM
same,GI50,[19],> 100 µM
same,TGI,[19],> 100 µM
same,GI50,[21],> 100 µM
same,TGI,[21],> 100 µM
same,GI50,[22],> 100 µM
same,TGI,[22],> 100 µM
same,GI50,[23],> 100 µM
same,TGI,[23],> 100 µM
same,GI50,[24],> 100 µM
same,TGI,[24],> 100 µM
same,GI50,[25],> 100 µM
same,TGI,[25],> 100 µM
same,GI50,[26],> 100 µM
same,TGI,[26],> 100 µM
same,GI50,[27],> 100 µM
same,TGI,[27],> 100 µM
same,GI50,[28],> 100 µM
same,TGI,[28],> 100 µM
same,GI50,[29],> 100 µM
same,TGI,[29],> 100 µM
same,GI50,[30],> 100 µM
same,TGI,[30],> 100 µM
same,GI50,[31],> 100 µM
same,TGI,[31],> 100 µM
same,GI50,[32],> 100 µM
same,TGI,[32],> 100 µM
same,GI50,[33],> 100 µM
same,TGI,[33],> 100 µM
same,GI50,[34],> 100 µM
same,TGI,[34],> 100 µM
same,GI50,[35],> 100 µM
same,TGI,[35],> 100 µM
same,GI50,[36],> 100 µM
same,TGI,[36],> 100 µM
same,GI50,[37],> 100 µM
same,TGI,[37],> 100 µM
same,GI50,[38],> 100 µM
same,TGI,[38],> 100 µM
same,GI50,[39],> 100 µM
same,TGI,[39],> 100 µM
same,GI50,[57],> 100 µM
same,TGI,[57],> 100 µM
same,GI50,[40],> 100 µM
same,TGI,[40],> 100 µM
same,GI50,[41],> 100 µM
same,TGI,[41],> 100 µM
same,GI50,[42],> 100 µM
same,TGI,[42],> 100 µM
same,GI50,[43],> 100 µM
same,TGI,[43],> 100 µM
same,GI50,[44],> 100 µM
same,TGI,[44],> 100 µM
same,GI50,[45],> 100 µM
same,TGI,[45],> 100 µM
same,GI50,[46],> 100 µM
same,TGI,[46],> 100 µM
same,GI50,[47],> 100 µM
same,TGI,[47],> 100 µM
same,GI50,[48],> 100 µM
same,TGI,[48],> 100 µM
same,GI50,[49],> 100 µM
same,TGI,[49],> 100 µM
same,GI50,[58],> 100 µM
same,TGI,[58],> 100 µM
same,GI50,[50],> 100 µM
same,TGI,[50],> 100 µM
same,GI50,[51],> 100 µM
same,TGI,[51],> 100 µM
same,GI50,[53],> 100 µM
same,TGI,[53],> 100 µM
same,GI50,[54],> 100 µM
same,TGI,[54],> 100 µM
same,GI50,[55],> 100 µM
same,TGI,[55],> 100 µM
same,GI50,[56],> 100 µM
same,TGI,[56],> 100 µM
